Experimental findings from patent US20050239764A1, “Zinc pyrrolidonecarboxylate dihydrate and method of producing the same” (Ajinomoto Co., Inc., priority 2004, published 2005) are described below.

For the data set the following is noted: dihydrate; for transmittance (T %) of 10 g/dl aqueous solution: 4 g dissolved in water to 40 ml, kept at 25° C. for one day, stirred 1 min, 550 nm, optical path 10 mm, 25° C.; for liquid of 10 g/dl aqueous solution: evaluation grade of dissolution state from transmittance at 550 nm, 10 mm path.

Procedure: Apparatus: Spectrophotometer V-570 (JAS. CO)
Spectrophotometer (UV/VIS/NIR)
measure wavelength: 550 nm
band width (near infrared): 8.0 nm
repeating interval: 3 sec.
measure cell: quartz glass cell T-1-UV-10 manufactured by TOSOH Quartz Co.
(Optical path width: 10 mm, outside width; 12.5 mm, height; 45 mm)
measure temperature: 25° C.(R.T.)
1) Stabilization of value was performed, thereby starting setting until 2 hours before measuring.
2) Determination of measuring program: Fixed Wavelength program was selected, and then initialization of wavelength was performed.
3) Injecting ion exchange water (about 3 ml) into each of blank cell and sample cell, setting on photometer, correcting zero point, and then determining a blank (Completion of measuring preparation).
RIKEN KOGYO INC., Magmix Stirrer) at 3 of speed range, and then the solution (3 ml) was injected into measuring cell immediately.
5) The cell was equipped photometer immediately after confirming absence of bubble in the cell.
6) After setting, the cell was stood for 1 min, and then subjected to measurement.
7) The transmittance (% T) is the value measured with photometer.
Under the above conditions, the transmittance was obtained accurately although measuring sample comprised insoluble material, because insoluble material was dispersed uniformly in the whole cell.

“zinc pyrrolidonecarboxylate dihydrate [Com. Ex. 1, reference compound]”: the “transmittance (T %) of 10 g/dl aqueous solution” value (from here on “transmittance (T %)”) turned out to be 17.5%. The same measure, in the same setting: next, “zinc pyrrolidonecarboxylate dihydrate [Com. Ex. 2, reference compound]”: 30.6%; “zinc pyrrolidonecarboxylate dihydrate [Com. Ex. 3, reference compound]”: 60.3%. For the substance “zinc pyrrolidonecarboxylate dihydrate [Com. Ex. 4, reference compound]”, the “transmittance (T %)” value came out at 19.9%. With “zinc pyrrolidonecarboxylate dihydrate [Ex. 1]”, the “transmittance (T %)” value stood at 96.6% and the “liquid of 10 g/dl aqueous solution” value was “◯”. On the same counts, the results for “zinc pyrrolidonecarboxylate dihydrate [Ex. 2]” are 97.6% and “⊚”. The matching figures for “zinc pyrrolidonecarboxylate dihydrate [Ex. 3]”: 96.9% and “◯”. “zinc pyrrolidonecarboxylate dihydrate [Ex. 4]”: the “transmittance (T %)” value was 97.6% and the “liquid of 10 g/dl aqueous solution” value is “⊚”. Regarding “zinc pyrrolidonecarboxylate dihydrate [Ex. 5]”, the “transmittance (T %)” value was found to be 97.9% and the “liquid of 10 g/dl aqueous solution” value is “⊚”. Consider “zinc pyrrolidonecarboxylate dihydrate [Ex. 6]”, for which the “transmittance (T %)” value amounted to 86.1% and the “liquid of 10 g/dl aqueous solution” value is “Δ (Δ: 93-85%)”. On to “zinc pyrrolidonecarboxylate dihydrate [Ex. 7]”, for which the “transmittance (T %)” value was 95.7%.
